Reference: patent US20120283325A1, “EXCIPIENT COMPATIBILITY WITH EZATIOSTAT” (Telik, Inc., priority 2011, published 2012)

What was measured:
[1] = Potency results of ezatiostat hydrochloride in binary mixtures, formulations and alone stored at 40° C. and 75% RH; type: physicochemical; conditions: for Potency: 40° C. and 75% RH
Experimental: (§1) Further, ezatiostat hydrochloride was mixed with each of the excipients mentioned in Table 3. The quantity of excipient used was determined by the desired properties of the resulting formulation. These blends were prepared in scintillation vials which were screw Teflon capped and stored at 40° C. and 75% RH.
The potency results of ezatiostat hydrochloride in the binary mixtures of Table 3, Formulations 1 and 2 of Table 2, and ezatiostat hydrochloride alone stored at 40° C. and 75% RH are shown in Table 4.

[2] = Degradation products by HPLC of binary mixtures and formulations of ezatiostat hydrochloride over time; type: physicochemical; conditions: 40° C. and 75% RH
Experimental: as §1
The degradation products were evaluated for each sample using HPLC at initial, 4 weeks, and 8 weeks period. For the initial and 4 week samples, the HPLC autosampler temperature was set at ambient but it was set at 5° C. for samples tested at 8 weeks. The autosampler temperature was lowered due to an observation that individual impurities were increasing during the HPLC run.
The inconsistent results obtained at four weeks were attributed to higher temperature used during HPLC. For this reason, the data at four weeks is not probative for the underlying study.

[3] = 4 weeks, autosampler ambient (data called not probative)

## CCOC(=O)[C@@H](N)CCC(=O)N[C@@H](CSCc1ccccc1)C(=O)N[C@@H](C(=O)OCC)c1ccccc1.Cl [Ezatiostat•HCl, ethyl (2S)-2-amino-5-[[(2R)-3-benzylsulfanyl-1-[[(JR)-2-ethoxy-2-oxo-1-phenylethyl]amino]-1-oxopropan-2-yl]amino]-5-oxopentanoate]
[1]; T = 0 weeks
  Potency: 102.1%
[1]; T = 4 weeks
  Potency: 102.0%
[1]; T = 8 weeks
  Potency: 100.4%
[1]; eight weeks at 40° C. and 75% RH
  Excipient compatibility: compatible with all the excipients investigated above
[1]; storage at 40° C. and 75% RH
  Potency change over eight weeks: little change
[2]; 0 weeks, autosampler ambient
  RS(% Area) RRT 0.74: 0.13% Area
  RS(% Area) RRT 0.88: 0.09% Area
  RS(% Area) Total: 0.22% Area
[2]; [3]
  RS(% Area) RRT 0.74: 0.28% Area
  RS(% Area) RRT 0.88: 0.27% Area
  RS(% Area) Total: 0.55% Area
[2]; 8 weeks, autosampler 5° C.
  RS(% Area) RRT 0.74: 0.07% Area
  RS(% Area) RRT 0.88: 0.51% Area
  RS(% Area) Total: 0.58% Area
[2]; 8 weeks, autosampler 5° C., listed as ezatiostat hydrochloride
  RS(% Area) RRT 0.88: 0.51 % Area
